Here are results for five compounds from US20250019375A1, “BENZOTHIAZOLE DYES” (Detect, Inc., priority 2023, published 2025).

Series [1] has as its system Neisseria gonorrhoeae (AQ10). Kind of series: qLAMP assay, Neisseria gonorrhoeae (AQ10), time to positive (Tp). It is filed as biochemical. Here is the method:
Compounds were added to the LAMP reaction mixture containing target-specific primers, dNTPs, DNA polymerase, reverse transcriptase, and the target RNA sequence. This reaction mixture was incubated at 62° C. (or the specified temperature (FIG. 4)) for at least 50 minutes and the increase in fluorescence was assessed to determine the time to positivity (Tp). Data shown in FIGS. 1A-B support that these compounds are compatible with LAMP assays at concentrations up to 16 μM.
For the Neisseria gonorrhoeae (AQ10), there is detrimental impact on Tp observed with Compound 5 at ≥8 μM where a delay in Tp is observed.
Data shown is under clean and eluted vaginal swabs (contrived conditions). Good performance is observed at ≥61° C. There is detrimental impact on performance at <60° C. (delay in Tp).

Series [2] is described as follows: Accelerated stability of lyophilized dye, assayed by HPLC. It is filed as physicochemical. Here is the method: It was also determined that Compound 3 is stable under accelerated stability conditions from lyophilized chemistry (FIG. 5). As assayed by HPLC, Compound 3 is stable under these conditions at the 3-month time point (98.7±0.33% remaining), corresponding to 6 months stability at room temperature (15-30° C.).

In series [3] the test system is double stranded DNA (dsDNA). Kind of series: Absorption/emission spectra of dyes with dsDNA. It is filed as physicochemical. Conditions: for Stokes shift: 2 μM dye + 2 μM hairpin DNA; for Stokes shift / λem: pH 8.8 isoamplification buffer; for λabs: absorption recorded at 25±2° C.; for λem: fluorescence at 62±2° C. How it is done:
FIG. 6A-F show absorption/emission spectra of dyes with double stranded DNA (dsDNA).
Fluorescence readings (FIGS. 6A-F) were performed using 10 mm path length, 700 μL quartz cuvettes on Horiba Fluorolog-Q fluorometer instrument. All measurements were taken at elevated temperature (62±2° C.) in pH 8.8 isoamplification buffer containing 20 mM Tris-HCl. For each measurement, 2 μM of dye was combined with 2 μM of hairpin DNA. Absorption spectra were recorded at ambient temperature (25±2° C.) on a DeNovix DS-11 spectrophotometer instrument. Normalized spectra are shown for clarity. The benzothiazole dye compounds have large Stokes shift >40 nm, which allows a substantial portion of the output fluorescence to pass through the filter covering the photodiode detection component of the device.

The mark [4] stands for this setting: clean and eluted vaginal swabs (contrived conditions).

The structures appear in SMILES notation. Where only a bound is given, the exact number is not on record here.

As to `COc1ccc2c(c1)S/C(=C\c1cc[n+](C)c(N3CCOCC3)c1)N2C` [Compound 3], in series [1] (setting [4]), the “temperature of good performance” value is at least 61 °C and the “temperature with detrimental impact on performance (delay in Tp)” value is under 60 °C. The “% remaining” value in series [2] (40° C., lyophilized, 3-month time point, HPLC) is listed as 98.7±0.33%. Further, the “corresponding stability at room temperature” value in series [2] (room temperature (15-30° C.), extrapolated from 3 months accelerated conditions) is 6 months. Further, in series [3], the Stokes shift was 50 nm, the λabs was 448 nm and the λem stood at 498 nm.

On to `COc1ccc2c(c1)S/C(=C\c1cc[n+](C)c(-c3ccccc3)c1)N2C` [Compound 5], for which the “concentration with detrimental impact on Tp (delay in Tp)” value in series [1] (Neisseria gonorrhoeae (AQ10) LAMP, 62° C.) was at least 8 µM.

As for `CN1/C(=C/c2cc[n+](C)c(N3CCOCC3)c2)Sc2ccccc21` [Compound 8], in series [3], the Stokes shift was 38 nm, the λabs amounted to 442 nm and the λem came to 480 nm.

For `CN(C)c1cc(/C=C2\Sc3ccccc3N2C)cc[n+]1C` [Compound 10], in series [3], the Stokes shift amounted to 38 nm, the λabs is on record as 443 nm and the λem came out at 481 nm.

Consider `COc1ccc2c(c1)S/C(=C\c1cc[n+](C)c3ccccc13)N2C` [Compound 11], for which, in series [3], the Stokes shift worked out at 43 nm, the λabs is listed as 510 nm and the λem was found to be 553 nm.
